Calls of active or inactive are those of the source. No cut-off for these calls is given here.
How the values were obtained:
PANC-1 = test: Cytotoxicity against human PANC-1 cells assessed as inhibition of cell growth measured after 8 days by XTT cell viability assay; format: functional, cell-based; settings: PANC-1, 192 h
MDA-MB-231 = test: Cytotoxicity against human MDA-MB-231 cells assessed as inhibition of cell growth measured after 8 days by XTT cell viability assay; format: functional, cell-based; settings: MDA-MB-231, 192 h
NCI-H1299 = test: Cytotoxicity against human NCI-H1299 cells assessed as inhibition of cell growth measured after 8 days by XTT cell viability assay; format: functional, cell-based; settings: NCI-H1299, 192 h
PC-3 [1] = test: Cytotoxicity against human PC-3 cells assessed as inhibition of cell growth measured after 8 days by XTT cell viability assay; format: functional, cell-based; settings: PC-3, 192 h
[2] = Cytotoxicity against human Fibroblast cells assessed as inhibition of cell growth measured after 8 days by XTT cell viability assay; format: toxicity, cell-based
PC-3 [3] = test: Induction of cell cycle arrest in human PC-3 cells assessed as accumulation of cells at G1/G0 phase at 1 nM measured after 4 days by PI staining based flow cytometry analysis (reference value: 78.3%); format: functional; settings: time 4 day
PC-3 [4] = test: Induction of cell cycle arrest in human PC-3 cells assessed as accumulation of cells at G1/G0 phase at 50 nM measured after 4 days by PI staining based flow cytometry analysis (reference value: 78.3%); format: functional; settings: time 4 day
PC-3 [5] = test: Induction of cell cycle arrest in human PC-3 cells assessed as accumulation of cells at G1/G0 phase at 1000 nM measured after 4 days by PI staining based flow cytometry analysis (reference value: 78.3%); format: functional; settings: time 4 day
PC-3 [6] = test: Induction of cell cycle arrest in human PC-3 cells assessed as accumulation of cells at S phase at 1 nM measured after 4 days by PI staining based flow cytometry analysis (reference value: 9.87%); format: functional; settings: time 4 day
PC-3 [7] = test: Induction of cell cycle arrest in human PC-3 cells assessed as accumulation of cells at S phase at 50 nM measured after 4 days by PI staining based flow cytometry analysis (reference value: 9.87%); format: functional; settings: time 4 day
PC-3 [8] = test: Induction of cell cycle arrest in human PC-3 cells assessed as accumulation of cells at S phase at 1000 nM measured after 4 days by PI staining based flow cytometry analysis (reference value: 9.87%); format: functional; settings: time 4 day
PC-3 [9] = test: Induction of cell cycle arrest in human PC-3 cells assessed as accumulation of cells at G2/M phase at 1 nM measured after 4 days by PI staining based flow cytometry analysis (reference value: 11.9%); format: functional; settings: time 4 day
PC-3 [10] = test: Induction of cell cycle arrest in human PC-3 cells assessed as accumulation of cells at G2/M phase at 50 nM measured after 4 days by PI staining based flow cytometry analysis (reference value: 11.9%); format: functional; settings: time 4 day
PC-3 [11] = test: Induction of cell cycle arrest in human PC-3 cells assessed as accumulation of cells at G2/M phase at 1000 nM measured after 4 days by PI staining based flow cytometry analysis (reference value: 11.9%); format: functional; settings: time 4 day
PC-3 [12] = test: Induction of cell cycle arrest in human PC-3 cells assessed as accumulation of cells at G1/G0 phase at 1 nM measured after 6 days by PI staining based flow cytometry analysis (reference value: 70.7%); format: functional; settings: time 6 day
PC-3 [13] = test: Induction of cell cycle arrest in human PC-3 cells assessed as accumulation of cells at G1/G0 phase at 50 nM measured after 6 days by PI staining based flow cytometry analysis (reference value: 70.7%); format: functional; settings: time 6 day
PC-3 [14] = test: Induction of cell cycle arrest in human PC-3 cells assessed as accumulation of cells at G1/G0 phase at 1000 nM measured after 6 days by PI staining based flow cytometry analysis (reference value: 70.7%); format: functional; settings: time 6 day
PC-3 [15] = test: Induction of cell cycle arrest in human PC-3 cells assessed as accumulation of cells at S phase at 1 nM measured after 6 days by PI staining based flow cytometry analysis (reference value: 14.4%); format: functional; settings: time 6 day
PC-3 [16] = test: Induction of cell cycle arrest in human PC-3 cells assessed as accumulation of cells at S phase at 50 nM measured after 6 days by PI staining based flow cytometry analysis (reference value: 14.4%); format: functional; settings: time 6 day
PC-3 [17] = test: Induction of cell cycle arrest in human PC-3 cells assessed as accumulation of cells at S phase at 1000 nM measured after 6 days by PI staining based flow cytometry analysis (reference value: 14.4%); format: functional; settings: time 6 day
PC-3 [18] = test: Induction of cell cycle arrest in human PC-3 cells assessed as accumulation of cells at G2/M phase at 1 nM measured after 6 days by PI staining based flow cytometry analysis (reference value: 15.8%); format: functional; settings: time 6 day
PC-3 [19] = test: Induction of cell cycle arrest in human PC-3 cells assessed as accumulation of cells at G2/M phase at 50 nM measured after 6 days by PI staining based flow cytometry analysis (reference value: 15.8%); format: functional; settings: time 6 day
PC-3 [20] = test: Induction of cell cycle arrest in human PC-3 cells assessed as accumulation of cells at G2/M phase at 1000 nM measured after 6 days by PI staining based flow cytometry analysis (reference value: 15.8%); format: functional; settings: time 6 day
PC-3 [21] = test: Induction of cell cycle arrest in human PC-3 cells assessed as accumulation of cells at G1/G0 phase at 1 nM measured after 8 days by PI staining based flow cytometry analysis (reference value: 64.6%); format: functional; settings: time 8 day
PC-3 [22] = test: Induction of cell cycle arrest in human PC-3 cells assessed as accumulation of cells at G1/G0 phase at 50 nM measured after 8 days by PI staining based flow cytometry analysis (reference value: 64.6%); format: functional; settings: time 8 day
PC-3 [23] = test: Induction of cell cycle arrest in human PC-3 cells assessed as accumulation of cells at G1/G0 phase at 1000 nM measured after 8 days by PI staining based flow cytometry analysis (reference value: 64.6%); format: functional; settings: time 8 day
PC-3 [24] = test: Induction of cell cycle arrest in human PC-3 cells assessed as accumulation of cells at S phase at 1 nM measured after 8 days by PI staining based flow cytometry analysis (reference value: 23.9%); format: functional; settings: time 8 day
PC-3 [25] = test: Induction of cell cycle arrest in human PC-3 cells assessed as accumulation of cells at S phase at 50 nM measured after 8 days by PI staining based flow cytometry analysis (reference value: 23.9%); format: functional; settings: time 8 day
PC-3 [26] = test: Induction of cell cycle arrest in human PC-3 cells assessed as accumulation of cells at S phase at 1000 nM measured after 8 days by PI staining based flow cytometry analysis (reference value: 23.9%); format: functional; settings: time 8 day
PC-3 [27] = test: Induction of cell cycle arrest in human PC-3 cells assessed as accumulation of cells at G2/M phase at 1 nM measured after 8 days by PI staining based flow cytometry analysis (reference value: 12.4%); format: functional; settings: time 8 day
PC-3 [28] = test: Induction of cell cycle arrest in human PC-3 cells assessed as accumulation of cells at G2/M phase at 50 nM measured after 8 days by PI staining based flow cytometry analysis (reference value: 12.4%); format: functional; settings: time 8 day
PC-3 [29] = test: Induction of cell cycle arrest in human PC-3 cells assessed as accumulation of cells at G2/M phase at 1000 nM measured after 8 days by PI staining based flow cytometry analysis (reference value: 12.4%); format: functional; settings: time 8 day
PC-3 [30] = test: Upregulation of caspase-3 expression in human PC-3 cells at 1 to 50 nM measured after 4 to 8 days by Western blot analysis; format: functional, cell-based; settings: dose 1-50 nM, time 4-8 day
PC-3 [31] = test: Upregulation of CYP1A1 expression in human PC-3 cells at 1 to 50 nM measured after 4 to 8 days by Western blot analysis; format: functional, cell-based; settings: dose 1-50 nM, time 4-8 day
PC-3 [32] = test: Upregulation of BAX expression in human PC-3 cells at 1 to 50 nM measured after 6 days by Western blot analysis; format: functional, cell-based; settings: dose 1-50 nM, time 6.0 day
PC-3 [33] = test: Upregulation of BAX expression in human PC-3 cells at 1 to 50 nM measured after 8 days by Western blot analysis; format: functional, cell-based; settings: dose 1-50 nM, time 8.0 day

SMILES: CC[C@H](C)[C@@H]([C@@H](CC(=O)N1CCC[C@H]1[C@H](OC)[C@@H](C)C(=O)N[C@@H](Cc1ccccc1)Cn1cc(C(=O)O)nn1)OC)N(C)C(=O)[C@@H](NC(=O)[C@H](C(C)C)N(C)C)C(C)C
- IC50 (PANC-1): 52 nM
- IC50 (MDA-MB-231): 93.9 nM
- IC50 (NCI-H1299): 137 nM
- IC50 (PC-3 [1]): 15.7 nM
- IC50 at 8 days [2]: 39.2 nM

SMILES: CC[C@H](C)[C@@H]([C@@H](CC(=O)N1CCC[C@H]1[C@H](OC)[C@@H](C)C(=O)N[C@@H](Cc1ccccc1)c1nc(CN)cs1)OC)N(C)C(=O)[C@@H](NC(=O)[C@H](C(C)C)N(C)C)C(C)C
- IC50 (PANC-1): 0.2 nM
- IC50 (MDA-MB-231): 36.2 nM
- IC50 (NCI-H1299): 3.1 nM
- IC50 (PC-3 [1]): 0.9 nM
- IC50 at 8 days [2]: 38.5 nM
- Activity (PC-3 [3]): 77.1%
- Activity (PC-3 [4]): 69.8%
- Activity (PC-3 [5]): 64.5%
- Activity (PC-3 [6]): 14.5%
- Activity (PC-3 [7]): 19.1%
- Activity (PC-3 [8]): 17.8%
- Activity (PC-3 [9]): 9.06%
- Activity (PC-3 [10]): 12%
- Activity (PC-3 [11]): 18.5%
- Activity (PC-3 [12]): 35.5%
- Activity (PC-3 [13]): 59.6%
- Activity (PC-3 [14]): 59.2%
- Activity (PC-3 [15]): 29.5%
- Activity (PC-3 [16]): 26.4%
- Activity (PC-3 [17]): 29.3%
- Activity (PC-3 [18]): 36.5%
- Activity (PC-3 [19]): 15.3%
- Activity (PC-3 [20]): 12.8%
- Activity (PC-3 [21]): 65.9%
- Activity (PC-3 [22]): 43.3%
- Activity (PC-3 [23]): 38.1%
- Activity (PC-3 [24]): 26.1%
- Activity (PC-3 [25]): 34.1%
- Activity (PC-3 [26]): 40.9%
- Activity (PC-3 [27]): 9.28%
- Activity (PC-3 [28]): 24%
- Activity (PC-3 [29]): 22.9%
- Activity (PC-3 [30]): Active
- Activity (PC-3 [31]): Active
- Activity (PC-3 [32]): Active
- Activity (PC-3 [33]): inactive

SMILES: CC[C@H](C)[C@@H]([C@@H](CC(=O)N1CCC[C@H]1[C@H](OC)[C@@H](C)C(=O)N[C@@H](Cc1ccccc1)Cn1cc(CNC)nn1)OC)N(C)C(=O)[C@@H](NC(=O)[C@H](C(C)C)N(C)C)C(C)C
- IC50 (PANC-1): 1.3 nM
- IC50 (MDA-MB-231): 19.8 nM
- IC50 (NCI-H1299): 4.7 nM
- IC50 (PC-3 [1]): 8.9 nM
- IC50 at 8 days [2]: 38.4 nM

SMILES: CC[C@H](C)[C@@H]([C@@H](CC(=O)N1CCC[C@H]1[C@H](OC)[C@@H](C)C(=O)N[C@@H](Cc1ccccc1)Cn1cc(CO)nn1)OC)N(C)C(=O)[C@@H](NC(=O)[C@H](C(C)C)N(C)C)C(C)C
- IC50 (PANC-1): 4.7 nM
- IC50 (MDA-MB-231): 63.4 nM
- IC50 (NCI-H1299): 7.8 nM
- IC50 (PC-3 [1]): 10.9 nM
- IC50 at 8 days [2]: 51.5 nM

SMILES: CC[C@H](C)[C@@H]([C@@H](CC(=O)N1CCC[C@H]1[C@H](OC)[C@@H](C)C(=O)N[C@@H](Cc1ccccc1)Cn1cc(CN)nn1)OC)N(C)C(=O)[C@@H](NC(=O)[C@H](C(C)C)N(C)C)C(C)C
- IC50 (PANC-1): 10.4 nM
- IC50 (MDA-MB-231): 94.6 nM
- IC50 (NCI-H1299): 18.7 nM
- IC50 (PC-3 [1]): 15.5 nM
- IC50 at 8 days [2]: 73.7 nM
